The results in this text go back to patent US9850225B2, “Compounds useful as immunomodulators” (BRISTOL-MYERS SQUIBB COMPANY, priority 2014, dated 2017).

Each structure is given as a SMILES string. Like-named read-outs stand apart in the source and are kept apart here.

In the experiment the target is PD-1/PD-L1 interaction (PD-1-Ig / PD-L1-His) (Homo sapiens (Human), UniProt Q9NZQ7). The experiment can be described thus: PD-1/PD-L1 Homogenous Time-Resolved Fluorescence (HTRF) binding assay. The note with it: PD-1/PD-L1 HTRF binding assay, read-out: Range or IC50. The essentials:
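Human PD-L1-His (10 nM final) was pre-incubated with inhibitor for 15 min, then PD-1-Ig (20 nM final) was added for a further 15 min in dPBS with 0.1% BSA and 0.05% Tween-20. Binding was detected by HTRF using Eu-cryptate anti-Ig (1 nM) and APC anti-His (20 nM).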

Chain of PD-1/PD-L1 interaction (PD-1-Ig / PD-L1-His) (Q9NZQ7 other isoform, or with tags, fused parts or gaps): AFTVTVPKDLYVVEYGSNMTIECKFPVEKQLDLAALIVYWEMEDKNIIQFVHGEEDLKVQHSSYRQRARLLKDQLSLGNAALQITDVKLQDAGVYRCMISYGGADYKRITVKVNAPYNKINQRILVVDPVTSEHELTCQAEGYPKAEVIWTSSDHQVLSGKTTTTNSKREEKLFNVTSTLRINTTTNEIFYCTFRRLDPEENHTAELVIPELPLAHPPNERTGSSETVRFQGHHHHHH

Usually IC50 stands for the concentration that gives 50% inhibition. As for `Cc1c(COc2cc(OCc3cccc(C#N)c3)c(CN3CC[C@H](O)[C@H]3C(=O)O)cc2Cl)cccc1-c1ccc2c(c1)OCCO2` [Example 1219, (2S,3S)-1-(5-chloro-2-((3-cyanobenzyl)oxy)-4-((3-(2,3-dihydrobenzo[b][1,4]dioxin-6-yl)-2-methylbenzyl)oxy)benzyl)-3-hydroxypyrrolidine-2-carboxylic acid], where the note is “value given as range class”, the IC50 was 0.6 to 10 nM.

`Cc1c(COc2cc(OCc3cccc(C#N)c3)c(CNC3(C(=O)O)CCN(C)CC3)cc2Cl)cccc1-c1ccc2c(c1)OCCO2` [Example 1220, 4-((5-chloro-2-((3-cyanobenzyl)oxy)-4-((3-(2,3-dihydrobenzo[b][1,4]dioxin-6-yl)-2-methylbenzyl)oxy)benzyl)amino)-1-methylpiperidine-4-carboxylic acid]: under “numeric value”, the IC50 amounted to 6.07 nM.

In the case of `Cc1c(COc2cc(OCc3cccc(C#N)c3)c(CN[C@@H](Cc3ccccn3)C(=O)O)cc2Cl)cccc1-c1ccc2c(c1)OCCO2` [Example 1221, (S)-2-((5-chloro-2-((3-cyanobenzyl)oxy)-4-((3-(2,3-dihydrobenzo[b][1,4]dioxin-6-yl)-2-methylbenzyl)oxy)benzyl)amino)-3-(pyridin-2-yl)propanoic acid], the IC50 (value given as range class) lay within 0.6 to 10 nM.

As to `Cc1c(COc2cc(OCc3cccc(C#N)c3)c(CN3CCSC[C@@H]3C(=O)O)cc2Cl)cccc1-c1ccc2c(c1)OCCO2` [Example 1222, (S)-4-(5-chloro-2-((3-cyanobenzyl)oxy)-4-((3-(2,3-dihydrobenzo[b][1,4]dioxin-6-yl)-2-methylbenzyl)oxy)benzyl)thiomorpholine-3-carboxylic acid], the IC50 (value given as range class) was in the range of 10 to 100 nM. In the case of `Cc1c(COc2cc(OCc3cccc(C#N)c3)c(CNC(C)(C)CN3CCN(C)CC3)cc2Cl)cccc1-c1ccc2c(c1)OCCO2` [Example 1223, 3-((4-chloro-5-((3-(2,3-dihydrobenzo[b][1,4]dioxin-6-yl)-2-methylbenzyl)oxy)-2-(((2-methyl-1-(4-methylpiperazin-1-yl)propan-2-yl)amino)methyl)phenoxy)methyl)benzonitrile], for the setting “value given as range class”, the IC50 lay in the range of 0.6 to 10 nM. As to `Cc1c(COc2cc(OCc3cccc(C#N)c3)c(CN3CCN(C)CC3C(=O)O)cc2Cl)cccc1-c1ccc2c(c1)OCCO2` (stereo not shown) [Example 1224, 1-(5-chloro-2-((3-cyanobenzyl)oxy)-4-((3-(2,3-dihydrobenzo[b][1,4]dioxin-6-yl)-2-methylbenzyl)oxy)benzyl)-4-methylpiperazine-2-carboxylic acid], the IC50 (value given as range class) was in the range of 10 to 100 nM.

On to `Cc1c(COc2cc(OCc3cccc(C#N)c3)c(CNCC(O)CN3CCCC3=O)cc2Cl)cccc1-c1ccc2c(c1)OCCO2` (stereo not shown) [Example 1225], for which the concentration for half-maximal inhibition (IC50) (value given as range class) lay in the range of 0.6 to 10 nM. With `Cc1c(COc2cc(OCc3cccc(C#N)c3)c(CN3CCc4nc[nH]c4C3C(=O)O)cc2Cl)cccc1-c1ccc2c(c1)OCCO2` (stereo not shown) [Example 1226, 5-(5-chloro-2-((3-cyanobenzyl)oxy)-4-((3-(2,3-dihydrobenzo[b][1,4]dioxin-6-yl)-2-methylbenzyl)oxy)benzyl)-4,5,6,7-tetrahydro-3H-imidazo[4,5-c]pyridine-4-carboxylic acid], the half-inhibitory concentration (IC50) (value given as range class) is 10 to 100 nM. For the compound `Cc1c(COc2cc(OCc3cccc(C#N)c3)c(CN[C@@H](Cn3ncnn3)C(=O)O)cc2Cl)cccc1-c1ccc2c(c1)OCCO2` [Example 1227, (S)-2-((5-chloro-2-((3-cyanobenzyl)oxy)-4-((3-(2,3-dihydrobenzo[b][1,4]dioxin-6-yl)-2-methylbenzyl)oxy)benzyl)amino)-3-(2H-tetrazol-2-yl)propanoic acid], the IC50 (value given as range class) lay in the range of 100 to 20000 nM.

As for `Cc1c(COc2cc(OCc3cccc(C#N)c3)c(CN[C@H](Cc3cn(Cc4ccccc4)cn3)C(=O)O)cc2Cl)cccc1-c1ccc2c(c1)OCCO2` [Example 1228, (R)-3-(1-benzyl-1H-imidazol-4-yl)-2-((5-chloro-2-((3-cyanobenzyl)oxy)-4-((3-(2,3-dihydrobenzo[b][1,4]dioxin-6-yl)-2-methylbenzyl)oxy)benzyl)amino)propanoic acid], the IC50 (value given as range class) fell in the range of 10 to 100 nM.
